Data published in US20190151277A1, “USES OF BIOACTIVE LIPIDS” (NESTEC S.A., priority 2014, published 2019).

Experiments:
Format in all cases: cell-based
human islets [1] = assay: Acute insulin secretion assay with human islets from a lean non-diabetic donor; conditions: 2 mM and 20 mM glucose, 15-deoxy-Δ12,14-PGJ2-2-G at 250 μM
Protocol: Insulin secretion assay was performed in low glucose (2 mM) and high glucose (20 mM) conditions with human islets from a lean non-diabetic donor. […] Both bioactive lipids improved glucose stimulated insulin release acutely. The results are expressed as ng secreted insulin per 10 islets.

mouse islets = assay: GSIS in mouse islets after 72 hours treatment; conditions: 72 hours at 50 μM, 2 mM and 20 mM glucose
Protocol: (§1) After PGD2G treatment, glucose stimulated insulin release was measured in low glucose (2 mM) and high glucose (20 mM) conditions in KRB solution. The insulin release is expressed as released from the total content of insulin in Ins1E cells and mouse islets.

Ins1E cells = assay: GSIS in Ins1E cells after 72 hours treatment; conditions: 72 hours at 50 μM, 2 mM and 20 mM glucose
Protocol: as §1

[2] = Acute glucose stimulated insulin release normalized to total protein content; conditions: 2 mM and 20 mM glucose, 470 μM, 2.3 nM, 230 nM bioactive lipid
Protocol: Glucose stimulated insulin release was measured in low glucose (2 mM) and high glucose (20 mM) in the presence of various concentrations (470 μM, 2.3 nM, 230 nM) of the bioactive lipid. The bioactive lipid improved glucose stimulated insulin release particularly at concentrations from 2.5 nM to 250 nM. The result are presented as insulin release normalized to total protein content.

human islets [3] = assay: Beta cell function and incretin response in human islets from donors; conditions: lean type 2 diabetic and non-diabetic obese donors, 50 μM, 72 hours
Protocol: Glucose stimulated insulin release was measured in low glucose (2 mM), high glucose (20 mM) and high glucose (20 mM)+0.1 uM Exendin4

human islets [4] = assay: Glucose stimulated insulin release in human islets after cytokine-induced dysfunction; conditions: human islets of three donors, 50 μM 72 hours, cytokine mix last 48 hours
Protocol: During the last 48 hours, the cytokine mix was added (IL1beta 10 ng/ml, TNF alpha 25 ng/ml and INFgamma 10 ng/ml). Glucose stimulated insulin release was measured in low glucose (2 mM) and high glucose (20 mM) conditions. The bioactive lipid was able to improve glucose stimulated insulin release after cytokine-induced dysfunction.

human H716 cells = assay: GLP-1 secretion assay in human H716 cells; conditions: 0.23 nM to 2.3 nM
Protocol: GLP-1 secretion assay was performed using human H716 cells in the presence of various concentration of the bioactive lipid from 0.23 nM to 2.3 nM.

SMILES	insulin secretion (ng secreted insulin per 10 islets) (human islets [1])	glucose stimulated insulin release (of total insulin content) (mouse islets)	glucose stimulated insulin release (of total insulin content) (Ins1E cells)	insulin release normalized to total protein content [2]	beta cell function (glucose stimulated insulin release) (human islets [3])	incretin response (20 mM glucose + 0.1 uM Exendin4) (human islets [3])	glucose stimulated insulin release after cytokine-induced dysfunction (human islets [4])	GLP1 release normalized to total protein content (human H716 cells)
CCCCC/C=C/C=C1/C(=O)C=C[C@@H]1C/C=C\CCCC(=O)OC(CO)CO [15-deoxy-Δ12,14-PGJ2-2-G, 11-oxo-5Z,9,12E,4E-prostatetraenoic acid-2-glycerol ester]	increased insulin secretion both with and without the presence of a white adipose tissue (WAT) fraction							
CCCCC[C@H](O)/C=C/[C@H]1C(=O)C[C@H](O)[C@@H]1C/C=C\CCCC(=O)OCC(O)CO (stereo partly drawn) [PGD2G, 9a, 15S-dihydroxy-11-oxo-5Z,13E-prostadienoic acid 1-glyceryl ester]	also increased insulin secretion compared to control tissues	increased insulin secretion	increased insulin secretion	acutely stimulated insulin secretion upon stimulation with glucose	improved beta cell function	improved	protected human islets against cytokine induced dysfunction	increased GLP1 secretion
